Measured values as given in patent US8410178B2, “CIS 3,4-dihydroxy-2-(3-methylbutanoyl)-5-(3-methylbutyl)-4-(4-methylpentanoyl)cyclopent-2-en-1-derivatives, substantially enantiomerically pure compositions and methods” (KinDex Therapeutics, LLC, priority 2010, dated 2013).

Tests used:
PPARδ = target: T1, PPARδ (Homo sapiens, UniProt Q03181); experiment: PPARδ luciferase reporter assay; format: cell-based; conditions: reporter cells, 20 hours
T1 sequence (Q03181 1-441): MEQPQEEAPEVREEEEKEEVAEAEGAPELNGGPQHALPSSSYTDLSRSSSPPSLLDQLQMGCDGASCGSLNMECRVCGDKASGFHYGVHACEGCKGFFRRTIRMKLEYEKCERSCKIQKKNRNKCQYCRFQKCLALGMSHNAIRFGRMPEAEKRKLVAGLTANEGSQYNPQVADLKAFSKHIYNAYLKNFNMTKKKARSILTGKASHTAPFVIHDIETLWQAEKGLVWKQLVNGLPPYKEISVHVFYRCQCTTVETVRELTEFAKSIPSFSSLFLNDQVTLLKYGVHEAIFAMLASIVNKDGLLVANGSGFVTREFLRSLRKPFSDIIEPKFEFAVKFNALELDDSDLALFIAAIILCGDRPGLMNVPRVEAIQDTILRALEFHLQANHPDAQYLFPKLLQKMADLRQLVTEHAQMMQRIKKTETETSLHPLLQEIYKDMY
Protocol: (§1) The functional effect of (+)-KDT501 on PPARα, PPARδ, and PPARγ activity was evaluated using a PPAR reporter assay (INDIGO Biosciences, PA). This assay utilizes non-human mammalian cells engineered to provide constitutive high level expression of PPARα, PPARδ, or PPARγ and containing a luciferase report gene specific to the appropriate PPAR. Following activation by agonist binding, PPAR induces expression of the luciferase reporter gene. Luciferase activity therefore provides a surrogate for measuring PPAR activity in agonist-treated cells.
(§2) Reporter cells were plated on a 96-well plate at 100 μL per well, and 100 μL of (+)-KDT501 at various final concentrations (25, 12.5, 6.25, 3.125, 1.56 and 0.78 μM) was added to each well. […] 0.1% DMSO was also used as a negative control for each assay. Plates are incubated for 20 hours in a humidified incubator at 37° C. and 5% CO2. After incubation, cell medium was discarded and the cells were treated with 100 μL of luciferase detection reagent for 15 minutes. Plates were analyzed using a luminometer (Victor2, Perkin Elmer). Average relative light unit (RLU) and standard deviation were analyzed using GraphPad Prism.

PPARγ = target: T2, PPARγ (Homo sapiens, UniProt P37231); experiment: PPARγ luciferase reporter assay; format: cell-based
T2 sequence (P37231 1-505): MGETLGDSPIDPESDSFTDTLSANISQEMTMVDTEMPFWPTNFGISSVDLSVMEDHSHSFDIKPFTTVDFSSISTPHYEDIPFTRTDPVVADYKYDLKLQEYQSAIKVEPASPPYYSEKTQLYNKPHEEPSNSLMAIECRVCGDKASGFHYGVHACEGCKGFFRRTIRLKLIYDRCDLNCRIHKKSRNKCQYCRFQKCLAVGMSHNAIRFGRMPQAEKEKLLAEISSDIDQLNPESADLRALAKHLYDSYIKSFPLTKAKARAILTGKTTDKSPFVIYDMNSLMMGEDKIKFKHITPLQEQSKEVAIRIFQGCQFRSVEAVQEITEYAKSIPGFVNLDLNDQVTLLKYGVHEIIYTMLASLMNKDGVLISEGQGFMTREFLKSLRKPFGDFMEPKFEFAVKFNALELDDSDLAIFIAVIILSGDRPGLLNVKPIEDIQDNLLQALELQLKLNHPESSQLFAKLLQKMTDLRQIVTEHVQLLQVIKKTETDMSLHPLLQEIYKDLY
Protocol: as §1, §2
The PPAR activity assays were repeated as described above using both (+)-KDT501(12.5, 6.25, 3.125, 1.56, and 0.78 μM) and (−)-KDT501 (25, 12.5, 6.25, 3.125, 1.56, and 0.78 μM).

[1] = target: T3, angiotensin II receptor type II (AGTR2) (Homo sapiens, UniProt P50052); experiment: Competitive binding to AGTR2 ([125I]CGP 42112A); conditions: binding target AGTR2; competitor ligand Angiotensin-II
T3 sequence (P50052 1-363): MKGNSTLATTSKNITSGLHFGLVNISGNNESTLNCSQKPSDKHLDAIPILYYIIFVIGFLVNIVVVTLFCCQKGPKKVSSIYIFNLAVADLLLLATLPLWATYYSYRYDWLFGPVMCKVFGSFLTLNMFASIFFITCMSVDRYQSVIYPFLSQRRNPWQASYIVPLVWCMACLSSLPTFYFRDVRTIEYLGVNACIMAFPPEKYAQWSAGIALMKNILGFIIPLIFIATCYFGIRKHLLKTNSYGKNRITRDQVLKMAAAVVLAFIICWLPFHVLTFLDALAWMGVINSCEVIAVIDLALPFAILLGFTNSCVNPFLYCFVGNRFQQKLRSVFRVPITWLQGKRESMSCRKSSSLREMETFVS

PPARα = target: T4, PPARα (Homo sapiens, UniProt Q07869); experiment: PPARα luciferase reporter assay; format: cell-based; conditions: reporter cells, 20 hours
T4 sequence (Q07869 1-468): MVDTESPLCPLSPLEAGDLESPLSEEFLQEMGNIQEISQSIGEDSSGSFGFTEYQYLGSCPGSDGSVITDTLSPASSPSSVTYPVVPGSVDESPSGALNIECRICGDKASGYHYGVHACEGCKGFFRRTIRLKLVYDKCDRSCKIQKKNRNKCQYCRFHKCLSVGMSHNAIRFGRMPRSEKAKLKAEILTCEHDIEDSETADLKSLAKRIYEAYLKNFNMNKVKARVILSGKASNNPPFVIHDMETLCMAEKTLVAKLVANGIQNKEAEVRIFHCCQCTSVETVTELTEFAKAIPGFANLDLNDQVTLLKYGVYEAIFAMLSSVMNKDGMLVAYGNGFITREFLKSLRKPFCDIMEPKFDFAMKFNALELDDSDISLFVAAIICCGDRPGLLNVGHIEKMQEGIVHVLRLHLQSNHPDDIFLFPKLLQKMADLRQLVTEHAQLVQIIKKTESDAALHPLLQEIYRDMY
Protocol: as §1, §2

[2] = target: T5, peroxisome proliferator-activated receptor gamma (PPARγ) (Homo sapiens, UniProt P37231); experiment: Competitive binding to PPARγ ([3H]rosiglitazone)
T5 sequence (P37231 1-505): T2 sequence (P37231 1-505)

Human DAPK1 = Human DAPK1 (Homo sapiens, UniProt P53355); experiment: DAPK1 activity, cell free kinase assay; format: biochemical; conditions: cell free assay
Human DAPK1, sequence (P53355 whole entry): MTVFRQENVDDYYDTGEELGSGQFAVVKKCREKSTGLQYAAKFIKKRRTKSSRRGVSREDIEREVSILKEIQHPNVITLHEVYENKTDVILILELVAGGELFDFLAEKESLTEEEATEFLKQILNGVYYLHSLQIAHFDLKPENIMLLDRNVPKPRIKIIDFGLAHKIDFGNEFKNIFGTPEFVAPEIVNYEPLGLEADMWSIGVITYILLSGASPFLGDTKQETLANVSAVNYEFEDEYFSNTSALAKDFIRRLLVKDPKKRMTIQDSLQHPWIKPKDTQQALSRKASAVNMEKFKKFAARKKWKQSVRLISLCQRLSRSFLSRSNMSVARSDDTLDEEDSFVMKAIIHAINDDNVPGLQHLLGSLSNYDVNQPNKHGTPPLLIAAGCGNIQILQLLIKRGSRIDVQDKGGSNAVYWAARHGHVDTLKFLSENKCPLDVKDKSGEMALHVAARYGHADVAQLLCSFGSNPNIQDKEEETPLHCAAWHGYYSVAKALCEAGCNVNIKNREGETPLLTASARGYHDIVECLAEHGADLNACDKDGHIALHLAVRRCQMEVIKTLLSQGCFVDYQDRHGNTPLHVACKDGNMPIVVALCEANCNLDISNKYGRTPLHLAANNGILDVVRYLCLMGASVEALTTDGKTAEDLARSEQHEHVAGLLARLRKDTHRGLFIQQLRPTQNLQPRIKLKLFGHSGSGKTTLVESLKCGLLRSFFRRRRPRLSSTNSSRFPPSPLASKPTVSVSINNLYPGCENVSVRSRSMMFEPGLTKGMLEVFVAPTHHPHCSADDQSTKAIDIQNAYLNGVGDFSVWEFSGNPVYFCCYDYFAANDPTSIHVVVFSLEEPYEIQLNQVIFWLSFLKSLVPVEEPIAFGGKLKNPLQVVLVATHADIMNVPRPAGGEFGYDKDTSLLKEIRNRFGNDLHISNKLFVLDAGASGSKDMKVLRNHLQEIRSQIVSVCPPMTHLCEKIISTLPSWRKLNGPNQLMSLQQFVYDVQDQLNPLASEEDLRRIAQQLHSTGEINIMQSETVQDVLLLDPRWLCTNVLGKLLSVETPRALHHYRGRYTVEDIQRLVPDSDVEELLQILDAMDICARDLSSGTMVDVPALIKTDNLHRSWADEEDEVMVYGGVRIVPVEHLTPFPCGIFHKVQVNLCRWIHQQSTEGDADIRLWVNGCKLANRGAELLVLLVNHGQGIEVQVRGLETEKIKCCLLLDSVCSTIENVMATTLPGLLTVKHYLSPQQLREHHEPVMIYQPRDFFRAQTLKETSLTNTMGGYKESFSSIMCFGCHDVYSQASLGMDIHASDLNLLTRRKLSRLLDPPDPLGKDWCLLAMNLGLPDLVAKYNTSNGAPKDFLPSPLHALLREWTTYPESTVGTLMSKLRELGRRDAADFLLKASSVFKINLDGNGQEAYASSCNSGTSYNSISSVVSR
Protocol: The effect of (+)-KDT501 and (−)-KDT501 on death-associated protein kinase 1 (DAPK1) activity was evaluated.
Human DAPK1 was incubated with 8 mM MOPS, pH 7.0, 0.2 mM EDTA, 250 μM ZIP peptide substrate ([…]), 10 mM MgOAc, and [γ-^33P-ATP] (specific activity approximately 500 cpm/pmol, concentration as required). (+)-KDT501 or (−)-KDT501 at varying concentrations (100, 30, 10, 1, 0.3, 0.1, 0.03, 0.01 μM) were added to the reaction mixture. The reaction was initiated by addition of the MgATP mix. After incubation for 40 minutes at room temperature, the reaction was stopped by addition of 3% phosphoric acid solution. 10 μL of reaction mixture was spotted onto a P30 filtermat, washed three times for five minutes in 75 mM phosphoric acid and once in methanol prior, then dried and subjected to scintillation counting.

## CC(C)CCC(=O)[C@]1(O)C(O)=C(C(=O)CC(C)C)C(=O)[C@H]1CCC(C)C [(−)-KDT501]
PPARδ
  PPARδ activity: little or no effect
PPARγ; concentration of test compound 3.13 μM
  PPARγ reporter activity (RLU): 547 RLU
PPARγ; concentration of test compound 6.25 μM
  PPARγ reporter activity (RLU): 972 RLU
PPARγ; concentration of test compound 12.5 μM
  PPARγ reporter activity (RLU): 2407 RLU
PPARγ; concentration of test compound 25 μM
  PPARγ reporter activity (RLU): 4244 RLU
PPARγ; reporter cells, 20 hours
  PPARγ activity: increased PPARγ activity, but to a significantly lesser degree than (+)-KDT501
[1]
  IC50: 32 µM
  Ki: 16 µM
  nH: 0.9
PPARα
  PPARα activity: little or no effect
[2]
  IC50: 30 µM
  Ki: 16 µM
[2]; binding target PPARγ, competitor ligand Rosiglitazone
  nH: 1.1
Human DAPK1
  IC50: 40.9 µM
